Where “and” joins values, the source holds several entries; their conditions need not be identical. Equal entries are not always repeated.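 These data come from cells grown in 96-well plates and exposed to compound for 48 hours at five concentrations. GI50 marks 50% less growth. TGI is the concentration that stops growth completely.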
Experiments:
Experiment in all cases: growth of human tumour cells (NCI), 48 h
A549 NSCLC = tested on: A549 NSCLC
CCRF-CEM leukemia = tested on: CCRF-CEM leukemia
HL-60(TB) leukemia = tested on: HL-60(TB) leukemia
KM20L2 colon = tested on: KM20L2 colon
LOX IMVI melanoma = tested on: LOX IMVI melanoma
LXFL 529 NSCLC = tested on: LXFL 529 NSCLC
NCI-H23 lung = tested on: NCI-H23 lung
NCI-H460 lung = tested on: NCI-H460 lung
OVCAR-8 ovarian = tested on: OVCAR-8 ovarian
RPMI-8226 leukemia = tested on: RPMI-8226 leukemia
RXF-631 renal = tested on: RXF-631 renal
SF-539 CNS = tested on: SF-539 CNS
SK-MEL-5 melanoma = tested on: SK-MEL-5 melanoma
SNB-19 CNS = tested on: SNB-19 CNS
U251 CNS = tested on: U251 CNS
UACC-257 melanoma = tested on: UACC-257 melanoma
UACC-62 melanoma = tested on: UACC-62 melanoma
SNB-78 CNS = tested on: SNB-78 CNS

Compound | GI50 (A549 NSCLC) | TGI (A549 NSCLC) | GI50 (CCRF-CEM leukemia) | GI50 (HL-60(TB) leukemia) | TGI (KM20L2 colon) | GI50 (OVCAR-8 ovarian) | GI50 (RPMI-8226 leukemia) | TGI (RPMI-8226 leukemia) | GI50 (SK-MEL-5 melanoma) | TGI (SK-MEL-5 melanoma) | TGI (SNB-19 CNS) | GI50 (U251 CNS) | TGI (U251 CNS) | GI50 (UACC-257 melanoma) | TGI (UACC-257 melanoma) | TGI (UACC-62 melanoma) | also measured
C1CN1c1nc(N2CC2)nc(N2CC2)n1 | 4.99 µM | 31 µM and 28.3 µM | 0.195 µM | 0.195 µM | 47.7 µM | 5.11 µM | 15.9 µM | 72.6 µM and 29.7 µM | 6.93 µM | 19.6 µM and 14 µM | 58.2 µM and > 51.3 µM | 6.6 µM | 27.5 µM and > 50.1 µM | 13.3 µM | 31.9 µM and 23 µM | 14.8 µM and 17 µM | TGI (HL-60(TB) leukemia): 24.5 µM and > 100 µM; TGI (LOX IMVI melanoma): 24.7 µM and 14.3 µM; TGI (LXFL 529 NSCLC): 29.7 µM; GI50 (NCI-H23 lung): 5.55 µM; TGI (NCI-H23 lung): 20 µM and 15 µM; TGI (NCI-H460 lung): 17.6 µM; TGI (OVCAR-8 ovarian): 38.8 µM and 16.2 µM; TGI (RXF-631 renal): 42.3 µM; GI50 (SF-539 CNS): 1.78 µM; TGI (SF-539 CNS): 12.8 µM and 8.65 µM; GI50 (SNB-19 CNS): 4.55 µM; GI50 (UACC-62 melanoma): 3.75 µM
C[C@@]1(CO)[C@H](O)CC[C@@]2(C)[C@H]1CC[C@H]1C[C@@H]3C[C@@]12CC[C@@]3(O)COC(=O)CN | 1.81 µM and 15.7 µM and 3.1 µM | 76.1 µM and > 500 µM and 182 µM | 6.56 µM and 0.777 µM | 2.11 µM and 0.38 µM | > 500 µM | 2.29 µM and 12.6 µM and 4.01 µM | 16.1 µM and 3.35 µM | 78.2 µM and > 500 µM and 126 µM | 41.9 µM and 6.06 µM | > 500 µM and 95.7 µM | > 500 µM and 254 µM | 4.35 µM and 7.51 µM | 66 µM and 50 µM and 178 µM | 133 µM and 99.4 µM | > 72.2 µM and > 500 µM and 239 µM | > 500 µM and 131 µM | GI50 (KM20L2 colon): 61.2 µM and 28.7 µM and 129 µM; GI50 (LOX IMVI melanoma): 3.62 µM and 6.65 µM; GI50 (NCI-H460 lung): 0.176 µM and 1.37 µM and 0.317 µM; GI50 (SNB-78 CNS): > 500 µM; TGI (SNB-78 CNS): > 500 µM

Reference: PubChem BioAssay (NCI)
